Columns and labels:
[1] = system: HeLa cells or neuronal cells; assay: Cell death assay of Example 3 (MNNG, alamarBlue; protection against parthanatos, Table 4); assay type: cell-based; conditions: 1 μM test compound; for (%) inhibition of cell death: MNNG-induced cell death, alamarBlue
In short: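 HeLa or neuronal cells (1×10^4/well) were pretreated 1 h at 37° C with 1 μM compound, exposed to MNNG for 15 min, washed, then re-incubated 18 h with 1 μM compound. Viability was read by alamarBlue fluorescence (ex 560/em 590 nm). Cell death was expressed relative to control wells.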

MIF = target: T1, MIF (Homo sapiens, UniProt P14174); assay: Nuclease assay of Example 3 (MIF inhibitory activity, Table 4); assay type: biochemical; parameters: (%) inhibition of MIF nuclease activity: concentration or dose not given beside the values; conditions: for (%) inhibition of MIF nuclease activity: nuclease assay of Example 3
T1 sequence (P14174 1-115): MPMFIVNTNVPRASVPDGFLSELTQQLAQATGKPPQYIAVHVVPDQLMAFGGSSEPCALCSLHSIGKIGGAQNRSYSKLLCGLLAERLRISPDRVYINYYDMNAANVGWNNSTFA
In short: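 Human genomic DNA (200 ng), pcDNA (200 ng) or PS^30-type substrates (1 μM) were incubated with MIF (0.25-8 μM final) in 10 mM Tris-HCl pH 7.0, 10 mM MgCl2, 1 mM DTT at 37 °C for 1 h (pcDNA, small substrates) or 4 h (genomic DNA). Cleavage was assessed by agarose or PAGE electrophoresis with EtBr staining and chemiluminescent detection of biotin-labelled DNA.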

Structure (SMILES)	(%) inhibition of cell death [1]	(%) inhibition of MIF nuclease activity (MIF)	protection against parthanatos (cell death) [1]	MIF nuclease activity (MIF)	(%) inhibition of cell death ([1]; 1 µM)
COc1ccc(CC[C@H]2OC(=O)[C@@H]3CCCCN3C(=O)C(=O)C(C)(C)COC(=O)C=CCCN(C)C(=O)[C@H](C(C)C)NC(=O)[C@H](C(C)C)N(C)C(=O)[C@@H](Cc3ccccc3)NC(=O)[C@H](CC(C)C)N(C)C(=O)CCC(=O)Nc3cccc2c3)cc1OC [compound 89]	49.9%	12.6%			
COc1ccc(CC[C@H]2OC(=O)[C@@H]3CCCCN3C(=O)C(=O)C(C)(C)COC(=O)C=CCCN(C)C(=O)[C@H](c3ccccc3)NC(=O)C(C(C)C)N(C)C(=O)[C@@H](Cc3ccccc3)NC(=O)[C@H](CC(C)C)N(C)C(=O)CCC(=O)Nc3cccc2c3)cc1OC (some centres unmarked) [compound 90]	48.5%	15.8%			
COc1ccc(CC[C@H]2OC(=O)[C@@H]3CCCCN3C(=O)C(=O)C(C)(C)COC(=O)C=CCCN(C)C(=O)[C@H]3CCCN3C(=O)[C@H](COC(C)(C)C)N(C)C(=O)C(c3ccccc3)NC(=O)[C@H](C)N(C)C(=O)COc3cccc2c3)cc1OC (some centres unmarked) [compound 91]	62.7%	25.8%			
COc1ccc(CC[C@H]2OC(=O)[C@@H]3CCCCN3C(=O)C(=O)C(C)(C)COC(=O)C=CCCN(C)C(=O)[C@@H]3CCCCN3C(=O)[C@H](COC(C)(C)C)N(C)C(=O)C(c3ccccc3)NC(=O)[C@H](C)N(C)C(=O)COc3cccc2c3)cc1OC (some centres unmarked) [compound 92]	72.1%	9.0%	protect against parthanatos	do not inhibit MIF nuclease activity	
COc1ccc(CC[C@H]2OC(=O)[C@@H]3CCCCN3C(=O)C(=O)C(C)(C)COC(=O)C=CCCN(C)C(=O)[C@@H]3CC(O)CN3C(=O)[C@H](COC(C)(C)C)N(C)C(=O)C(c3ccccc3)NC(=O)[C@H](C)N(C)C(=O)COc3cccc2c3)cc1OC (some centres unmarked) [compound 93]	66.8%	14.6%			
COc1ccc(CC[C@H]2OC(=O)[C@@H]3CCCCN3C(=O)C(=O)C(C)(C)COC(=O)C=CCCN(C)C(=O)[C@H](C)N(C)C(=O)[C@H](COC(C)(C)C)N(C)C(=O)C(c3ccccc3)NC(=O)[C@H](C)N(C)C(=O)COc3cccc2c3)cc1OC (some centres unmarked) [compound 94]	12.1%	12.0%			
COc1ccc(CC[C@H]2OC(=O)[C@@H]3CCCCN3C(=O)C(=O)C(C)(C)COC(=O)C=CCCN(C)C(=O)[C@@H]3CCCN3C(=O)[C@H](COCc3ccccc3)N(C)C(=O)C(c3ccccc3)NC(=O)[C@H](C)N(C)C(=O)COc3cccc2c3)cc1OC (some centres unmarked) [compound 96]	69.1%	32.7%			
COc1ccc(CC[C@H]2OC(=O)[C@@H]3CCCCN3C(=O)C(=O)C(C)(C)COC(=O)C=CCCN(C)C(=O)[C@@H]3CCCN3C(=O)[C@H](COC(C)(C)C)N(C)C(=O)[C@H](C)NC(=O)[C@H](C)N(C)C(=O)COc3cccc2c3)cc1OC [compound 100]	26.1%	13.4%			
COc1ccc(CC[C@H]2OC(=O)[C@@H]3CCCCN3C(=O)C(=O)C(C)(C)COC(=O)C=CCCN(C)C(=O)[C@@H]3CCCN3C(=O)[C@H](COC(C)(C)C)N(C)C(=O)[C@H](Cc3ccccc3)NC(=O)[C@H](C)N(C)C(=O)COc3cccc2c3)cc1OC [compound 101]	31.5%	9.1%			
COc1ccc(CC[C@H]2OC(=O)[C@@H]3CCCCN3C(=O)C(=O)C(C)(C)COC(=O)C=CCCN(C)C(=O)[C@@H]3CCCN3C(=O)[C@H](COC(C)(C)C)N(C)C(=O)C(c3ccccc3)NC(=O)[C@H](C)N(C)C(=O)COc3cccc2c3)cc1OC (some centres unmarked) [compound 102]		59.5%			77.7%
COc1ccc(CC[C@H]2OC(=O)[C@@H]3CCCCN3C(=O)C(=O)C(C)(C)COC(=O)C=CCCN(C)C(=O)[C@@H]3CCCN3C(=O)[C@H](COC(C)(C)C)N(C)C(=O)[C@H](Cc3ccc(F)cc3)NC(=O)[C@H](C)N(C)C(=O)COc3cccc2c3)cc1OC [compound 103]	22.5%	16.8%			
COc1ccc(CC[C@H]2OC(=O)[C@@H]3CCCCN3C(=O)C(=O)C(C)(C)COC(=O)C=CCCN(C)C(=O)[C@@H]3CCCN3C(=O)[C@H](COC(C)(C)C)N(C)C(=O)[C@H](Cc3ccncc3)NC(=O)[C@H](C)N(C)C(=O)COc3cccc2c3)cc1OC [compound 104]	20.4%	13.2%			
COc1ccc(CC[C@H]2OC(=O)[C@@H]3CCCCN3C(=O)C(=O)C(C)(C)COC(=O)C=CCCN(C)C(=O)[C@@H]3CCCN3C(=O)[C@H](COC(C)(C)C)N(C)C(=O)C(c3ccccc3)NC(=O)[C@@H](C)N(C)C(=O)COc3cccc2c3)cc1OC (some centres unmarked) [compound 106]	13.1%	11.9%			
COc1ccc(CC[C@H]2OC(=O)[C@@H]3CCCCN3C(=O)C(=O)C(C)(C)COC(=O)C=CCCN(C)C(=O)[C@@H]3CCCN3C(=O)[C@H](COC(C)(C)C)N(C)C(=O)C(c3ccccc3)NC(=O)CN(C)C(=O)COc3cccc2c3)cc1OC (some centres unmarked) [compound 107]		20.0%			15.1%
COc1ccc(CC[C@H]2OC(=O)[C@@H]3CCCCN3C(=O)C(=O)C(C)(C)COC(=O)C=CCCN(C)C(=O)[C@@H]3CCCN3C(=O)[C@H](CO)N(C)C(=O)C(c3ccccc3)NC(=O)C(CO)N(C)C(=O)COc3cccc2c3)cc1OC (some centres unmarked) [compound 108]	20.4%	4.2%			
COc1cc(F)c(CC[C@H]2OC(=O)[C@@H]3CCCCN3C(=O)C(=O)C(C)(C)COC(=O)C=CCCN(C)C(=O)[C@@H]3CCCN3C(=O)[C@H](COC(C)(C)C)N(C)C(=O)C(c3ccccc3)NC(=O)[C@H](C)N(C)C(=O)COc3cccc2c3)cc1OC (some centres unmarked) [compound 109]	52.9%	9.3%			
COc1cc(F)c(CCC2OC(=O)[C@@H]3CCCCN3C(=O)C(=O)C(C)(C)COC(=O)C=CCCN(C)C(=O)[C@@H]3CCCN3C(=O)[C@H](COC(C)(C)C)N(C)C(=O)C(c3ccccc3)NC(=O)[C@H](C)N(C)C(=O)COc3cccc2c3)cc1OC (some centres unmarked) [compound 110]	59.3%	20.9%			
COc1cc(CC[C@H]2OC(=O)[C@@H]3CCCCN3C(=O)C(=O)C(C)(C)COC(=O)C=CCCN(C)C(=O)[C@@H]3CCCN3C(=O)[C@H](COC(C)(C)C)N(C)C(=O)C(c3ccccc3)NC(=O)[C@H](C)N(C)C(=O)COc3cccc2c3)cc(F)c1OC (some centres unmarked) [compound 111]	48.9%	6.8%			

From patent publication US20220372014A1, “NEUROPROTECTIVE COMPOUNDS AND METHODS OF USE THEREOF” (The Johns Hopkins University, priority 2019, published 2022)
